Results from patent US11773051B2, “S-enantiomers of beta-hydroxybutyrate and butanediol and methods for using same” (Buck Institute for Research on Aging, priority 2017, dated 2023).

Experiments:
[1] = system: T1, histone deacetylases (HDAC); assay: in vitro HDAC assay, commercial assay kit Fluor de Lys Green from Enzo; assay type: biochemical; conditions: sodium salt
T1 construct: other: sodium salt; same assay as S-BHB
Protocol: (§1) The activity of S-BHB and R-BHB enantiomers in inhibiting histone deacetylases was tested.
(§2) This is an in vitro HDAC assay performed using the sodium salt of S-BHB and R-BHB with a commercial assay kit, Fluor de Lys Green from Enzo.
(§3) Without being bound to a particular theory, it is believed the R-BHB might be being metabolized more rapidly than the S-BHB resulting in the diminished maximum inhibition.

[2] = system: histone deacetylases (HDAC); assay: as above; assay type: biochemical; conditions: comparison with literature value
Protocol: as §1, §2, §3

SMILES | maximum inhibition of HDAC activity ([1]; same assay as S-BHB, partial inhibition) | inhibition of deacetylase activity (result in words) ([1]; FIG. 2) | IC50 ([1]; FIG. 2, read-out: HDAC activity inhibition IC50) [mM] | potency for HDAC inhibition relative to potency of R-BHB in a different, previously published assay (Shimazu et al. 2013) [2] [fold]
C[C@@H](O)CC(=O)O [R-BHB, reference compound] | about 50% |  |  | 
C[C@H](O)CC(=O)O [S-BHB, S-beta-hydroxybutyrate] |  | dose-dependent inhibition | 7.3 | ≤ 2
